Measurements reported in PMC3576019 (The Journal of steroid biochemistry and molecular biology, 2010).

Assays:
[1] = target: porcine uterine progesterone receptor; settings: read-out: IC50 for the porcine uterine progesterone receptor; ref [17]; cited from earlier work
[2] = tested on: rabbit endometrium; experiment: McPhail assay in estrogen-primed immature rabbits; assay type: in vivo; settings: progesterone alone (method: MPA 0.15mg/kg/day)
[3] = target: T1, Progesterone Receptor (Homo sapiens, UniProt P06401); experiment: Alkaline phosphatase assay in T47D cells; assay type: cell-based; settings: 20 h, progesterone at 10nM
T1 sequence (P06401 1-933): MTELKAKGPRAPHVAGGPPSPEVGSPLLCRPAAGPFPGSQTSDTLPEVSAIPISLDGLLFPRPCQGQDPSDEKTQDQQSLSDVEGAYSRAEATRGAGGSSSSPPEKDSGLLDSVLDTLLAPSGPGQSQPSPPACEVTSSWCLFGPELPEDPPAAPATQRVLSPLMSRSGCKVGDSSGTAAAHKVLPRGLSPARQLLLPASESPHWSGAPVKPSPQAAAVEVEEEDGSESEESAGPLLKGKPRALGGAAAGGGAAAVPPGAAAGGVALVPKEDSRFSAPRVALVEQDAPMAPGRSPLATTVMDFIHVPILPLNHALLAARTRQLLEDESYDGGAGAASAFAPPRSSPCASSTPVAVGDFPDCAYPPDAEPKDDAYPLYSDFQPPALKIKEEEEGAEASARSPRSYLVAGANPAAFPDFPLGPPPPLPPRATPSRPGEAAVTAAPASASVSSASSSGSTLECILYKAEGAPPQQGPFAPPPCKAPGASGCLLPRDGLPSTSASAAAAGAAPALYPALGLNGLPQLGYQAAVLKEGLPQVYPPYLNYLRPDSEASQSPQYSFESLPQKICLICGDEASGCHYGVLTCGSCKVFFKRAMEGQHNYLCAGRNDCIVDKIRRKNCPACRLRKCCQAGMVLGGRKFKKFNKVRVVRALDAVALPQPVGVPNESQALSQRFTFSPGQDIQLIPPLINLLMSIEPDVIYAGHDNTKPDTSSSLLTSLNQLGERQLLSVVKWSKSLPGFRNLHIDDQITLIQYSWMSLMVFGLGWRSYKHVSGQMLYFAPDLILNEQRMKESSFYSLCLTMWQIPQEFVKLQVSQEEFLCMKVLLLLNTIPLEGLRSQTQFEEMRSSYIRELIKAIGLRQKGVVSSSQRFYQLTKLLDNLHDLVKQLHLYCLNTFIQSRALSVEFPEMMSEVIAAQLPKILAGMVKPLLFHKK

SMILES	IC50 [1] [nM]	progestational histologic changes (McPhail Index), positive control [2]	induction of alkaline phosphatase activity [3]
CC(=O)O[C@H]1[C@@H](O)C=C2C=C3OC(=O)C(C)=C3C[C@]2(C)[C@H]1C [PF1092A]	30		
CC(=O)[C@H]1CC[C@H]2[C@@H]3CCC4=CC(=O)CC[C@]4(C)[C@H]3CC[C@]12C [Progesterone]		maximal progestational histologic changes were noted	significantly increased alkaline phosphatase activity
